Data on 14 molecules can be found in ChEMBL document CHEMBL4342418, “1,2,3-Triazole-containing hybrids as potential anticancer agents: Current developments, action mechanisms and structure-activity relationships” (Eur J Med Chem, 2019).

The IC50 is the concentration at which inhibition is half-maximal. The term GI50 denotes the concentration giving 50% growth inhibition.

Test [1] deals with A549. Description: Antiproliferative activity against human A549 cells assessed as reduction in cell viability after 48 hrs by MTT assay. Type of test: functional, cell-based. As to conditions: A549, 48 h. A general note: Tetrazolium dyes change colour on reduction, which living cells bring about.
Another test concerns PC-3. The test is described as follows: cells. Type of test: functional, cell-based. As to conditions: Homo sapiens, PC-3, 48 h.
A further test has as its system HT-29. The test is described as follows: Antiproliferative activity against human HT-29 cells assessed as reduction in cell viability after 48 hrs by MTT assay. Type of test: functional, cell-based. The following applies: HT-29, 48 h.
In the next test the test system is U-87 MG. Description: Antiproliferative activity against human U87MG cells assessed as reduction in cell viability after 48 hrs by MTT assay. Type of test: functional, cell-based, U-87MG ATCC.
In another test the test system is T47D. The test is described as follows: Antiproliferative activity against human T47D cells assessed as reduction in cell viability after 72 hrs by MTT assay. The test is classed as functional, cell-based.
The subject of test [2] is MCF7. Description: Antiproliferative activity against human MCF7 cells assessed as reduction in cell viability after 72 hrs by MTT assay. Type of test: functional, cell-based. As to conditions: MCF7, 72 h.
In the next test the test system is HCT-116. The test is described as follows: Antiproliferative activity against human HCT116 cells assessed as reduction in cell viability after 48 hrs by MTT assay. The test is classed as functional, cell-based. As to conditions: HCT-116, 48 h.
In test [3] the test system is MCF7. The test is described as follows: Antiproliferative activity against human MCF7 cells assessed as reduction in cell viability after 48 hrs by MTT assay. Type of test: functional, cell-based. The following applies: MCF7, 48 h.
Another test relates to C2C12. The test is described as follows: Cytotoxicity against mouse C2C12 cells assessed as reduction in cell viability after 48 hrs by MTT assay. Type of test: cell-based. As to conditions: C2C12, 48 h.
For another test, the system named is KG-1a. The test is described as follows: Antiproliferative activity against human KG1a cells assessed as reduction in cell viability after 72 hrs by MTT assay. The test is classed as functional, cell-based.
A further test relates to SK-BR-3. The test is described as follows: Antiproliferative activity against human SKBR3 cells assessed as reduction in cell viability after 72 hrs by MTT assay. As to conditions: SK-BR-3, 72 h. The test is classed as functional, cell-based.
Another test deals with SUM-159-PT. The test is described as follows: Antiproliferative activity against human SUM159 cells assessed as reduction in cell viability after 72 hrs by MTT assay. Type of test: functional, cell-based.
The test system of the next test is Caco-2. Description: Antiproliferative activity against human Caco2 cells assessed as reduction in cell viability after 72 hrs by MTT assay. Type of test: functional, cell-based. The following applies: Caco-2, 72 h.
A further test has as its system K562. Description: Antiproliferative activity against human K562 cells assessed as reduction in cell viability after 72 hrs by MTT assay. The test is classed as functional, cell-based. As to conditions: K562, 72 h.
A short description of test [4]: Cytotoxicity against dog MDCK1 cells assessed as reduction in cell viability after 72 hrs by MTT assay. Type of test: cell-based. The following applies: Canis lupus familiaris, MDCK1, 72 h.
Test [5] has as its system HeLa. The test is described as follows: Antiproliferative activity against human HeLa cells assessed as reduction in cell viability after 72 hrs by MTT assay. Type of test: functional, cell-based.
The next test relates to MDA-MB-231. The test is described as follows: Antiproliferative activity against human MDA-MB-231 cells assessed as reduction in cell viability after 48 hrs by MTT assay. The test is classed as functional, cell-based. As to conditions: MDA-MB-231, 48 h.
In another test the test system is HEK293. Description: Cytotoxicity against HEK293 cells assessed as reduction in cell viability after 48 hrs by MTT assay. The test is classed as cell-based. As to conditions: Homo sapiens, HEK293, 48 h.
The test system of test [6] is DU-145. Description: Antiproliferative activity against human DU145 cells assessed as reduction in cell viability after 48 hrs by MTT assay. The test is classed as functional, cell-based. The following applies: DU-145, 48 h.
Test [7] deals with HeLa. The test is described as follows: Antiproliferative activity against human HeLa cells by SRB assay. The test is classed as functional, cell-based.
Test [8] concerns A549. Description: Antiproliferative activity against human A549 cells by SRB assay. Type of test: functional, cell-based. (Sulforhodamine B stains cellular protein and so reports cell mass.)
Test [9] has as its system DU-145. Description: Antiproliferative activity against human DU145 cells by SRB assay. The test is classed as functional, cell-based.
For a further test, the system named is HepG2. The test is described as follows: Antiproliferative activity against human HepG2 cells by SRB assay. The test is classed as functional, cell-based.

≈ marks a conversion by molar mass, not a printed value. Some results are limits rather than exact numbers.

Description for PC-3: Antiproliferative activity against human PC3 cells assessed as reduction in cell viability after 48 hrs by MTT assay

Turning to `COc1ccc(Cn2cc(C(=O)c3cn(-c4ccccc4)nc3-c3ccc(Cl)cc3)nn2)cc1OC`, the IC50 in the test with A549 [1], in the test on PC-3, in the test with HT-29 and in the test with U-87 MG was 0.86 to 3.71 µM each time.
On to `COc1ccc(Cn2cc(C(=O)c3cn(-c4ccccc4)nc3-c3ccc(F)cc3)nn2)cc1OC`, for which the IC50 in the test with A549 [1], in the test on PC-3, in the test on HT-29 and in the test on U-87 MG was 0.86 to 3.71 µM in each case.
Take `COc1ccc(-c2nn(-c3ccccc3)cc2C(=O)c2cn(Cc3ccc(OC)c(OC)c3)nn2)cc1`: the IC50 in the test with A549 [1], in the test with PC-3, in the test on HT-29 and in the test with U-87 MG was 0.86 to 3.71 µM throughout.
`O=C(NCc1cn(Cc2ccc(F)cc2)nn1)c1cc(-c2ccccc2)on1`: the GI50 in the test with T47D and in the test on MCF7 [2] was 27.7 to 85.7 µg/mL (≈ 73.4 to 227 µM) each time.
Take `O=C(Nc1ccc(-n2cc(Oc3ccc(-c4cc(-c5ccc(Oc6cn(-c7ccc(NC(=O)[C@@H]8CCCN8)cc7)nn6)cc5)cc(-c5ccc(Oc6cn(-c7ccc(NC(=O)[C@@H]8CCCN8)cc7)nn6)cc5)c4)cc3)nn2)cc1)[C@@H]1CCCN1`: the IC50 is 7.1 to 13.4 µM in the test with HCT-116, 7.1 to 13.4 µM in the test with MCF7 [3] and more than 40 µM in the test with C2C12.
In the case of `Fc1cccc(COc2ccc(Nc3ncnc4ccc(-n5cc(CN6CCCC6)nn5)cc34)cc2Cl)c1`, the IC50 with KG-1a, with SK-BR-3 and with SUM-159-PT was 2.06 to 7.47 µM throughout.
`CN(C)CCCOc1cc(C(=O)NCc2cn(-c3cccc(NC(=O)[C@@H]4CCCN4)c3)nn2)nc(C(=O)NCc2cn(-c3cccc(NC(=O)[C@H]4CCCN4)c3)nn2)c1`: the IC50 in the test with HCT-116 is 1.3 µM; in the test with MCF7 [3] it was 1.7 µM; in the test with C2C12, more than 40 µM.
For the molecule `CN1CCN(Cc2cn(-c3ccc4ncnc(Nc5ccc(OCc6cccc(F)c6)c(Cl)c5)c4c3)nn2)CC1`, the half-maximal inhibitory concentration (IC50) in the test with KG-1a, in the test on SK-BR-3 and with SUM-159-PT was 2.06 to 7.47 µM in each case.
With `COc1ccc(-c2cn(Cc3cc(=O)oc4cc(O)c(O)cc34)nn2)cc1`, the IC50 was in the range of 9.7 to 81.9 µM with Caco-2, 9.7 to 81.9 µM with K562, 36.7 to 46 µM in test [4] and 9.7 to 81.9 µM with HeLa [5].
As for `CCCN1CCC(NCc2cn(-c3ccc4ncnc(Nc5ccc(OCc6cccc(F)c6)c(Cl)c5)c4c3)nn2)CC1`, the IC50 in the test with KG-1a, with SK-BR-3 and in the test on SUM-159-PT was 2.06 to 7.47 µM in each case.
In the case of `COc1cc(-c2ccc(Cn3cc(C(=O)c4c(-c5ccccc5)nc5ccccn45)nn3)cc2)cc(OC)c1OC`, the IC50 is 0.51 to 3.98 µM in the test on HCT-116; 0.51 to 3.98 µM in the test with MDA-MB-231; 63.5 µM with HEK293; 0.51 to 3.98 µM in the test with A549 [1]; 0.51 to 3.98 µM in the test with DU-145 [6].
For `COc1cccc(-c2cn(Cc3cc(=O)oc4cc(O)c(O)cc34)nn2)c1`, the IC50 fell in the range of 9.7 to 81.9 µM in the test on Caco-2, 9.7 to 81.9 µM in the test on K562, 36.7 to 46 µM in test [4] and 9.7 to 81.9 µM with HeLa [5].
Turning to `COc1ccc(/C=C/C(=O)c2cc(OC)c(OC)c(OC)c2)cc1OCc1cn(Cc2ccc(N)cc2)nn1`, the GI50 with HeLa [7], with A549 [8], with DU-145 [9] and in the test on HepG2 was 1.3 to 8.2 µM throughout.
With `CN(C)CCCOc1cc(C(=O)NCc2cn(-c3ccc(NC(=O)[C@@H]4CCCN4)cc3)nn2)nc(C(=O)NCc2cn(-c3ccc(NC(=O)[C@H]4CCCN4)cc3)nn2)c1`, the IC50 in the test on HCT-116 was 15.1 µM; in the test with MCF7 [3], 14.4 µM; in the test on C2C12 it was more than 40 µM.
